# Results: ChEMBL document CHEMBL1147896, “Small molecule inhibitors of E. coli primase, a novel bacterial target” (Bioorg Med Chem Lett, 2007)
# How the values were obtained:
# [1] = Inhibition of Escherichia coli primase by scintillation proximity assay
# Escherichia coli = assay: Antibacterial activity against Escherichia coli; assay type: functional
Compound,IC50 [1],MIC (Escherichia coli)
CC(C)c1nc2sc3c(NCCN(C)C)ncnc3c2c2c1CCCC2,61 µM,16 µg/mL
CCN(CC)CCNc1nc(SC)nc2c1sc1nc(C(C)C)c3c(c12)CCC3,36 µM,> 64 µg/mL
CCN(CC)CCNc1nc(SC)nc2c1sc1nc(N3CCOCC3)c3c(c12)CC(C)(C)OC3,45 µM,64 µg/mL
CN(C)CCOc1nc(-c2ccccc2)nc2c1oc1ccccc12,3.4 µM,4 µg/mL
CSc1nc(NCCN(C)C)c2sc3nc(CC(C)C)c4c(c3c2n1)CC(C)(C)OC4,79.2 µM,> 64 µg/mL
CCCCc1nc2sc3c(NCCN(C)C)nc(SC)nc3c2c2c1CCC2,103 µM,8 µg/mL
CSc1nc(NCCN(C)C)c2sc3nc(C(C)C)c4c(c3c2n1)CCC4,26.6 µM,8 µg/mL
CCN1CCN(c2nc(SC)nc3c2sc2nc(C(C)C)c4c(c23)CCC4)CC1,> 200 µM,> 64 µg/mL
c1ccc2c(c1)oc1c(N3CCN(C4CCCC4)CC3)ncnc12,122 µM,> 64 µg/mL
CN(C)CCNc1cc(-c2ccncc2)nc(-c2ccccn2)n1,44.7 µM,> 64 µg/mL
CCN(CC)CCNc1nc(SC)nc2c1sc1nc(C)c3c(c12)CC(C)(C)OC3,16.9 µM,32 µg/mL
CSc1nc(NCCN(C)C)c2sc3nc(CC(C)C)c4c(c3c2n1)CCC4,22 µM,4 µg/mL
CSc1nc(NCCN2CCOCC2)c2sc3nc(C(C)C)c4c(c3c2n1)CCC4,> 200 µM,> 64 µg/mL

# More lines, now with the values ahead:
IC50 [1],MIC (Escherichia coli),Compound
85.1 µM,64 µg/mL,CN1CCN(c2ncnc3c2oc2ccccc23)CC1
99.5 µM,64 µg/mL,Cc1ccc(-c2cn3c4ccccc4n(CCN4CCCCC4)c3n2)cc1
162 µM,> 64 µg/mL,COc1ccc(-c2cn3c4ccccc4n(CCN4CCCCC4)c3n2)cc1
18.4 µM,64 µg/mL,c1ccc(-c2cn3c4ccccc4n(CCN4CCCCC4)c3n2)cc1
50.5 µM,> 64 µg/mL,CN1CCN(c2nc(Nc3cccc(O)c3)nc3ccccc23)CC1
7.2 µM,> 64 µg/mL,CN1CCN(c2nc(-c3ccccc3O)nc3ccccc23)CC1
27.3 µM,> 64 µg/mL,CCN1CCN(c2nc(-c3ccncc3)nc3ccccc23)CC1
42.5 µM,> 64 µg/mL,CN1CCN(c2nc(-c3ccccc3)nc3c2oc2ccccc23)CC1
> 200 µM,> 64 µg/mL,CN1CCN(c2nc(-c3ccc(Cl)cc3)nc3c2oc2ccccc23)CC1
170 µM,> 64 µg/mL,CCc1nc(N2CCN(CC)CC2)c2oc3ccccc3c2n1
32.3 µM,64 µg/mL,c1csc(-c2cn3c4ccccc4n(CCN4CCCCC4)c3n2)c1
138 µM,64 µg/mL,OCCN1CCN(c2ncnc3c2oc2ccccc23)CC1
